In experiment [1] the target is Serine/threonine-protein kinase 3 (Homo sapiens) (UniProt Q13188). Nature of the experiment: Inhibition of recombinant full-length human MST2 (2 to end residues) assessed as residual activity at 1 uM using myelin basic protein as substrate measured after 40 mins in presence of [gamma33P]ATP by scintillation counting method relative to control.
Experiment [2] has as its target Platelet-derived growth factor receptor beta (Homo sapiens) (UniProt P09619). Nature of the experiment: Inhibition of human PDGFRbeta (557 to end residues) assessed as residual activity at 1 uM using poly(Glu, Tyr) 4:1 as substrate measured after 40 mins in presence of [gamma33P]ATP by scintillation counting method relative to control.
For experiment [3], the target named is Calcium/calmodulin-dependent protein kinase type II subunit gamma (Homo sapiens) (UniProt Q13555). Nature of the experiment: Inhibition of recombinant human CaMK2gamma (1 to 330 residues) assessed as residual activity at 1 uM […] incubated for 40 mins in presence of [gamma-33ATP] by scintillation counting based radiometry assay relative to control.
Calcium/calmodulin-dependent protein kinase type II subunit gamma (Homo sapiens), sequence (Q13555 whole entry, the tested form may be a part): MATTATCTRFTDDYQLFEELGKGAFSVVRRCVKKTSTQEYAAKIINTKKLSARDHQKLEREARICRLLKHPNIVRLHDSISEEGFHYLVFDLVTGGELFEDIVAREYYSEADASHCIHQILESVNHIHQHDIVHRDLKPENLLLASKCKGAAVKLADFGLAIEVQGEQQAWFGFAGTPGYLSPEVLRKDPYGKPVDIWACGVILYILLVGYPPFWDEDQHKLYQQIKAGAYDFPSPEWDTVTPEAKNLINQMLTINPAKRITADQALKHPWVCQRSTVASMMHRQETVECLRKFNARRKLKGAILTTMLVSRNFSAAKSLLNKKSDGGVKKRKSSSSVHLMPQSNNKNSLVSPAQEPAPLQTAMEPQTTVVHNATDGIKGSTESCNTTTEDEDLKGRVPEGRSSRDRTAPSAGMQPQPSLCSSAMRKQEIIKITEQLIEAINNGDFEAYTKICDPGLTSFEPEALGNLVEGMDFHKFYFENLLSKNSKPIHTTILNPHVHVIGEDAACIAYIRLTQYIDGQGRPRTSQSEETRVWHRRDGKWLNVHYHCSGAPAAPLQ

Experiment [4] has as its target Tyrosine-protein kinase Fyn (Homo sapiens) (UniProt P06241). Nature of the experiment: Inhibition of recombinant full length human Fyn assessed as residual activity at 1 uM using KVEKIGEGTYGVVYK as substrate at 40 mins in presence of [gamma-33ATP] by scintillation counting based radiometry assay relative to control.
For experiment [5], the target named is Tau-tubulin kinase 2 (Homo sapiens) (UniProt Q6IQ55). Nature of the experiment: Inhibition of human TTBK2 (1 to 331 residues) assessed as residual activity at 1 uM using Casein as substrate measured after 40 mins in presence of [gamma33P]ATP by scintillation counting method relative to control.
The target in experiment [6] is Protein kinase C gamma type (Homo sapiens) (UniProt P05129). Nature of the experiment: Inhibition of recombinant full-length human PKCgamma assessed as residual activity at 1 uM using histone H1 as substrate measured after 40 mins in presence of [gamma33P]ATP by scintillation counting method relative to control.
The target of experiment [7] is Cyclin-dependent kinase 5/CDK5 activator 1 (Homo sapiens) (UniProt Q00535+Q15078). Nature of the experiment: Inhibition of recombinant full length human CDK5/p25 assessed as residual activity at 1 uM using histone H1 as substrate incubated for 40 mins in presence of [gamma-33ATP] by scintillation counting based radiometry assay relative to control. It counts as protein-complex assay.

For experiment [8], the target named is Cyclin-dependent kinase 14/Cyclin-Y (Homo sapiens) (UniProt O94921+Q8ND76). Nature of the experiment: Inhibition of recombinant full length human CDK14/cyclinY assessed as residual activity at 1 uM in presence of [gamma-33ATP] by scintillation counting based radiometry assay relative to control. Type of experiment: protein-complex assay.
Experiment [9] concerns Angiopoietin-1 receptor (Homo sapiens), Q02763 [Q939H,Q940H]. Nature of the experiment: Inhibition of human Tie2 Q939H/Q940H mutant (771 to end residues) assessed as residual activity at 1 uM using poly(Glu, Tyr) 4:1 as substrate measured after 40 mins in presence of [gamma33P]ATP by scintillation counting method relative to control.
Angiopoietin-1 receptor (Homo sapiens), Q02763 [Q939H,Q940H], sequence (Q02763 whole entry Q939H/Q940H, the tested form may be a part): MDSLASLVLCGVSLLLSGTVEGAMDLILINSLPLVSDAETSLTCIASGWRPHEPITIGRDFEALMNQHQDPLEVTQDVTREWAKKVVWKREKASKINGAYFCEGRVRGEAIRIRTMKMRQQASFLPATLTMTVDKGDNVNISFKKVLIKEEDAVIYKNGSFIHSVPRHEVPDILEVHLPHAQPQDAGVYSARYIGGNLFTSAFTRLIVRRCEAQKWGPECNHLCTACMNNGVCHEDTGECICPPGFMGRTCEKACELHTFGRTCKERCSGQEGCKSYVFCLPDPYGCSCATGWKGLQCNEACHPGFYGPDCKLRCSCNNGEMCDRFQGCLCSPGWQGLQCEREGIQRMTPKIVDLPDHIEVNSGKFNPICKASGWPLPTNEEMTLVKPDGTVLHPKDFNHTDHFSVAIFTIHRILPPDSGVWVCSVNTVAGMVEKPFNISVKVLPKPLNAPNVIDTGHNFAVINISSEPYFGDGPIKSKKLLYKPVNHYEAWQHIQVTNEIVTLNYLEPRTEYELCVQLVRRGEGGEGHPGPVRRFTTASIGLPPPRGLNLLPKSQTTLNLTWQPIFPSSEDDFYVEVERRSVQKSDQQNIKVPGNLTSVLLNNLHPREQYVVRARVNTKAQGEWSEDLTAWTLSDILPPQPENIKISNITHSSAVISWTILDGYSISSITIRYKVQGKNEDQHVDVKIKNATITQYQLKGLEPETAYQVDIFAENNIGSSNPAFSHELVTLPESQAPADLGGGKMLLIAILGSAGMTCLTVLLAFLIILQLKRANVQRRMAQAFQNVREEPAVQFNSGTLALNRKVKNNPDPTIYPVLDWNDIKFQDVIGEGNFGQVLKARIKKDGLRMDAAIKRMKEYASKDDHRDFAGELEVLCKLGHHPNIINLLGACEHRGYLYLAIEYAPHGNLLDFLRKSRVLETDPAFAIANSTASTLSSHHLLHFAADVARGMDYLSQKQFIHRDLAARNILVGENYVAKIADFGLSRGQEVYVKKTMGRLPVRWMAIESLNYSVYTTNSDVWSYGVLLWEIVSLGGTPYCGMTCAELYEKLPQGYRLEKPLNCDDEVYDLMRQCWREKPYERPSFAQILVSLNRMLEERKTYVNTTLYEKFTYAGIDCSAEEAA
Experiment [10] addresses Receptor tyrosine-protein kinase erbB-4 (Homo sapiens) (UniProt Q15303). Nature of the experiment: Inhibition of recombinant human ERBB4 (706 to 991 residues) assessed as residual activity at 1 uM using poly(Glu, Tyr) 4:1 as substrate at 40 mins in presence of [gamma-33ATP] by scintillation counting based radiometry assay relative to control.
The target in experiment [11] is Mitogen-activated protein kinase 10 (Homo sapiens) (UniProt P53779). Nature of the experiment: Inhibition of human JNK3 assessed as residual activity at 1 uM using peptide as substrate after 40 mins by [gamma-33ATP] radiometric assay relative to control.
In experiment [12] the target is Protein kinase C theta type (Homo sapiens) (UniProt Q04759). Nature of the experiment: Inhibition of recombinant full length human PKCtheta assessed as residual activity at 1 uM using histone H1 as substrate measured after 40 mins in presence of [gamma33P]ATP by scintillation counting method relative to control.
Protein kinase C theta type (Homo sapiens), sequence (Q04759 whole entry, looked up): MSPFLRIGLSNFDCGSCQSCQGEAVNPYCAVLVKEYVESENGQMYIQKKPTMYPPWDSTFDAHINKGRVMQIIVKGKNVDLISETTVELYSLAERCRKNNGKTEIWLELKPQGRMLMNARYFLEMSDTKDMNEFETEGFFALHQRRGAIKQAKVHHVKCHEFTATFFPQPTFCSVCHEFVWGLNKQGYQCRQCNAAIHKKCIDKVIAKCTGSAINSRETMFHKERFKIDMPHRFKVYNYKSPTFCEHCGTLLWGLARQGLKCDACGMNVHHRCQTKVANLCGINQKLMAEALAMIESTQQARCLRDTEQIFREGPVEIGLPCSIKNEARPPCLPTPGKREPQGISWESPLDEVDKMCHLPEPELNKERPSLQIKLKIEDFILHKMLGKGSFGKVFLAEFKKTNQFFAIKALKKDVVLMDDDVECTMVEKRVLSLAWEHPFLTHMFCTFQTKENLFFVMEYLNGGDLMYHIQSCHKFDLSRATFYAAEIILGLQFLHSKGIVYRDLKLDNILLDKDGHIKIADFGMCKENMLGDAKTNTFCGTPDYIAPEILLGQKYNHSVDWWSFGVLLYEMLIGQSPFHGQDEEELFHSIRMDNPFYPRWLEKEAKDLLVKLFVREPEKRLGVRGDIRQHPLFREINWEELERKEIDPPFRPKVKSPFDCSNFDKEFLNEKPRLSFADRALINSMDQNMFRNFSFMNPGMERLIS
Experiment [13] concerns the target Serine-protein kinase ATM (Homo sapiens) (UniProt Q13315). Nature of the experiment: Inhibition of recombinant full-length human ATM at 1 uM assessed as residual activity at 1 uM using GST-cMyc-p53 as substrate measured after 40 mins by ELISA. For orientation: An ELISA detects its analyte on a solid surface through an enzyme-linked reagent.
The target of experiment [14] is Homeodomain-interacting protein kinase 3 (Homo sapiens) (UniProt Q9H422). Nature of the experiment: Inhibition of human HIPK3 (161 to 562 residues) assessed as residual activity at 1 uM using myelin basic protein as substrate after 40 mins by [gamma-33ATP] radiometric assay relative to control.
The target in experiment [15] is Protein kinase C beta type (Homo sapiens) (UniProt P05771). Nature of the experiment: Inhibition of recombinant human PKCbeta2 (2 to end residues) assessed as residual activity at 1 uM using histone H1 as substrate measured after 40 mins in presence of [gamma33P]ATP by scintillation counting method relative to control.
Protein kinase C beta type (Homo sapiens), sequence (P05771 2-671 limits assumed): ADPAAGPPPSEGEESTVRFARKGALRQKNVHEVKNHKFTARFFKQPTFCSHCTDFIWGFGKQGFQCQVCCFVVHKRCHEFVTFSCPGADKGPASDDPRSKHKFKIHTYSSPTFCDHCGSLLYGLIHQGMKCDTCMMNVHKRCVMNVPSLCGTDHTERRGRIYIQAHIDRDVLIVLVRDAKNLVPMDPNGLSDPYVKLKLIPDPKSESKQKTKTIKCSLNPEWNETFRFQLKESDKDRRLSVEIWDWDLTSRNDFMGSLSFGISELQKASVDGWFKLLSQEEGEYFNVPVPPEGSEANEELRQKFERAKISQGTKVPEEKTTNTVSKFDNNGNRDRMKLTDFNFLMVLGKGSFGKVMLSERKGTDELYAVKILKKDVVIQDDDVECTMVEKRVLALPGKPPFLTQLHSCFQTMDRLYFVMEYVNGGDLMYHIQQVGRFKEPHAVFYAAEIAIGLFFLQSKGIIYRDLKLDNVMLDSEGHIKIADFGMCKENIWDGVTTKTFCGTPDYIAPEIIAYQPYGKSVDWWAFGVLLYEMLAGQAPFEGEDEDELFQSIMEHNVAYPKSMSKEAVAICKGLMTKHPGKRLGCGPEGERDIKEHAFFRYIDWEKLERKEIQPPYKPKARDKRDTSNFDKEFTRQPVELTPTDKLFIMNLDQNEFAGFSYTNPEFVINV
The target of experiment [16] is Ephrin type-B receptor 4 (Homo sapiens) (UniProt P54760). Nature of the experiment: Inhibition of recombinant human EphB4 (561 to end residues) assessed as residual activity at 1 uM using poly(Glu, Tyr) 4:1 as substrate at 40 mins in presence of [gamma-33ATP] by scintillation counting based radiometry assay relative to control.
The target of experiment [17] is Serine/threonine-protein kinase SIK2 (Homo sapiens) (UniProt Q9H0K1). Nature of the experiment: Inhibition of recombinant human SIK2 (1 to 276 residues) assessed as residual activity at 1 uM using KKKVSRSGLYRSPSMPENLNRPR as substrate measured after 40 mins in presence of [gamma33P]ATP by scintillation counting method relative to control.
Serine/threonine-protein kinase SIK2 (Homo sapiens), sequence (Q9H0K1 whole entry, looked up, the tested form may be a part): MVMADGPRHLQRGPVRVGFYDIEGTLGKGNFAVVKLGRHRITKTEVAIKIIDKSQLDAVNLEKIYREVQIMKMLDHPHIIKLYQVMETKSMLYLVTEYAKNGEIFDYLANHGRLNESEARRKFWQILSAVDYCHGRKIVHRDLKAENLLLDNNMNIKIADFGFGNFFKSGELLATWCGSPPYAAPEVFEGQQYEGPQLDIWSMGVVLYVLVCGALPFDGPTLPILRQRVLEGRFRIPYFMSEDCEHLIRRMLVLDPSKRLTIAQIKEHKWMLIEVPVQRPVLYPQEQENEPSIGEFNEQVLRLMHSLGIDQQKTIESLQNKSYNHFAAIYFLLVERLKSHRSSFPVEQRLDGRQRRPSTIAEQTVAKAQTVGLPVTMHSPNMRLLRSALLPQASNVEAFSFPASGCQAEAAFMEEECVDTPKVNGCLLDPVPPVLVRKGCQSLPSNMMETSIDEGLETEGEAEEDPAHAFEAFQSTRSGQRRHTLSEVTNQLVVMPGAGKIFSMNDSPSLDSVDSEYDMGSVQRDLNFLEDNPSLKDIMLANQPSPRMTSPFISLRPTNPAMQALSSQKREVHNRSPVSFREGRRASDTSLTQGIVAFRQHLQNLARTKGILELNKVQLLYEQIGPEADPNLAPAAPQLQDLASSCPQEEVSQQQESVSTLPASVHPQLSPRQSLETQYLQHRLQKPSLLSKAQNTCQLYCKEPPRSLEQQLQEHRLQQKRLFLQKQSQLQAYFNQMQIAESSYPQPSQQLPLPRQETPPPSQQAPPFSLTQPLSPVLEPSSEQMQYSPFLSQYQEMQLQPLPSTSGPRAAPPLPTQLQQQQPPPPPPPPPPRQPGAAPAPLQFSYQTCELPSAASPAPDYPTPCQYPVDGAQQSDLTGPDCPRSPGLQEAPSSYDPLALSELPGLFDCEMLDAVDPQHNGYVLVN
The target in experiment [18] is Serine/threonine-protein kinase WNK1 (Homo sapiens) (UniProt Q9H4A3). Nature of the experiment: Inhibition of human WNK1 (1 to 491 residues) assessed as residual activity at 1 uM using myelin basic protein as substrate measured after 120 mins in presence of [gamma33P]ATP by scintillation counting method relative to control.
The target of experiment [19] is Dual specificity protein kinase CLK4 (Homo sapiens) (UniProt Q9HAZ1). Nature of the experiment: Inhibition of recombinant human CLK4 (128 to end residues) assessed as residual activity at 1 uM using YRRAAVPPSPSLSR as substrate incubated 40 mins in presence of [gamma-33ATP] by scintillation counting based radiometry assay relative to control.
Experiment [20] has as its system Mitogen-activated protein kinase 14 (Homo sapiens), Q16539 [T106M]. Nature of the experiment: Inhibition of recombinant human full length SAPK2a T106M mutant assessed as residual activity at 1 uM using myelin basic protein as substrate measured after 40 mins in presence of [gamma33P]ATP by scintillation counting method relative to control.
For experiment [21], the system named is Calcium/calmodulin-dependent protein kinase kinase 2 (Homo sapiens), Q96RR4 [T85S]. Nature of the experiment: Inhibition of recombinant full length human CaMKK2 T85S mutant assessed as residual activity at 1 uM […] incubated for 40 mins in presence of [gamma-33ATP] by scintillation counting based radiometry assay relative to control.

Experiment [22] concerns RAF proto-oncogene serine/threonine-protein kinase (Homo sapiens), P04049 [Y340D,Y341D]. Nature of the experiment: Inhibition of recombinant human C-Raf Y340D/Y341D double mutant (306 to end residues) assessed as residual activity at 1 uM poly(Glu, Tyr) 4:1 as substrate incubated 40 mins in presence of [gamma-33ATP] by scintillation counting based radiometry assay relative to control.

Mitogen-activated protein kinase 14 (Homo sapiens), Q16539 [T106M], sequence (Q16539 whole entry T106M): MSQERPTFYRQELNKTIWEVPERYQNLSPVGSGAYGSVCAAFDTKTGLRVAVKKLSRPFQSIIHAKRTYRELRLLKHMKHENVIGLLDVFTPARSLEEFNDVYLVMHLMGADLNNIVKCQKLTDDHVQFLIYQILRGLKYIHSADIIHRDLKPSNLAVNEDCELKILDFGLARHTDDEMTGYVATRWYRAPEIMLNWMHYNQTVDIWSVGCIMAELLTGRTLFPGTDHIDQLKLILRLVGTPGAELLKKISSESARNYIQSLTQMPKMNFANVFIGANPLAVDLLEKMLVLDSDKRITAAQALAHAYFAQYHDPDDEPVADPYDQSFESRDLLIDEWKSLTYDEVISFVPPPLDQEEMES

For the compound `N=C1NC(=O)/C(=C\c2ccc(-c3cccc([N+](=O)[O-])c3)o2)S1`, the Activity in [1] is 98%; in [2], 103%; in [3], 86%; in [4], 79%; in experiment [5], 107%; in experiment [6], 105%. For the same compound, the Activity is 75% in [7]; 84% in experiment [8]; 113% in [9]; 99% in experiment [10]; 112% in experiment [11]; 101% in [12]. The Activity in experiment [13] was 102%; in [14], 2%; in [15], 92%; in [16], 93%; in [17] it was 99%; in experiment [18], 97%. In addition, the Activity was found to be 60% in experiment [19], 80% in experiment [20], 92% in experiment [21] and 98% in [22].
In the case of `C=CCOC(=O)c1cc(-c2ccc(/C=C3/NC(=S)NC3=O)o2)ccc1Cl`, the Activity in [1] was 92%; in experiment [2], 108%; in experiment [3] it was 68%; in [4], 102%; in experiment [5] it was 111%; in [6], 104%. Also, the Activity in [7] came out at 58%; in experiment [8], 91%; in [9] it was 107%; in experiment [10] it was 90%; in experiment [11] it was 100%; in experiment [12] it was 96%. Further, the Activity came to 100% in [13]; 7% in [14]; 100% in [15]; 94% in experiment [16]; 104% in [17]; 94% in experiment [18]. Further, the Activity in experiment [19] was determined as 18%; in [20], 100%; in experiment [21], 94%; in experiment [22] it was 85%.

The values above are taken from ChEMBL document CHEMBL4334438, “Discovery of novel glycogen synthase kinase-3α inhibitors: Structure-based virtual screening, preliminary SAR and biological evaluation for treatment of acute myeloid leukemia” (Eur J Med Chem, 2019).
